Reference: patent US9040725B2, “Benzocycloheptane and benzoxepine derivatives” (Janssen Pharmaceutica NV, priority 2008, dated 2015)
Where a name gives a salt, the structure may show the parent alone. Read-outs that look alike come from different tables or passages of the source.

Assays:
[1] = molecular target: T1, GHS1A-receptor (Homo sapiens, UniProt Q92847); assay: Ghrelin-agonism in HEK293 cells (intracellular calcium, FLIPR); format: cell-based; details: calcium fluorescence (fluo-4 or Kit-3), EC50 in M
T1 construct: expressed in transfected cells; host or cells: HEK293
T1 sequence (Q92847 whole entry): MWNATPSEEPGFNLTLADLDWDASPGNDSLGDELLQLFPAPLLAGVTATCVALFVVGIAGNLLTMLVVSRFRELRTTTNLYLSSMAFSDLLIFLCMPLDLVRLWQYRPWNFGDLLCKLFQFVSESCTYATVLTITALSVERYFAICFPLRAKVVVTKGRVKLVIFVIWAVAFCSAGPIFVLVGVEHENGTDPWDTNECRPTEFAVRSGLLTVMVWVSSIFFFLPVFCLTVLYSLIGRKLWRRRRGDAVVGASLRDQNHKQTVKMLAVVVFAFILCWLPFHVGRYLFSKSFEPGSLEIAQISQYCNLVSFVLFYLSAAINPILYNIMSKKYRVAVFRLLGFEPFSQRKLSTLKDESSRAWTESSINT
Method: One day before the experiment, HEK293 cells, permanently transfected with the gene sequence for expression of the GHS1A-receptor, were seeded in poly-D-Lysine coated 96-well plates with clear bottom, and allowed to grow to […] of confluence on the next day.
Then, cells were incubated with the calcium-sensitive intracellular fluorescent probe fluo-4 or Kit-3 for 1 h at 37° C. Fluorescence representing free intracellular calcium in the cells was measured in a FLIPR-system (excitation at 488 nm, emission>520 nm). Test compounds were added to each well at the desired concentration and the fluorescence signal was simultaneously recorded in all wells. Release of intracellular calcium triggered by activation of the receptors upon addition of the test compound was measured as the fluorescence emitted from the complex of calcium and the fluorescent probe. The drug effect on fluorescence intensity was expressed relative to the maximal fluorescence intensity measured in cells exposed to the calcium-ionophore ionomycin.

[2] = tested on: NMRI-mice; assay: Acceleration of gastric emptying and small intestinal propulsion in NMRI-mice; format: in vivo; details: for minimal effective dose: Mus musculus, sc
Method: Male NMRI-mice weighing around 25 gram were fasted for 20 h and had free access to drinking water. Test compounds were administered to the animals by subcutaneous route 30 min before they were given a test meal by oral gavage. The test meal consisted of 0.3 ml of a chocolate nutridrink solution (1.0 kcal/ml) containing phenol red marker (5 mg/ml). Fifteen min after administration of the meal, the mice were sacrificed by CO2 gas inhalation. The phenol red content remaining in the stomach (extracted from the stomach with NaOH) was determined at 557 nm in a spectrophotometer and expressed as extinction units. Small intestinal propulsion was determined as the distance traveled by the phenol red marker through the intestine and expressed as a percentage of total small intestinal length (from the pylorus to the ileo-cecal junction).
The lowest dose that was active for each parameter was noted as the lowest active dose (LAD). Table 12 discloses LAD values.

[3] = HEK293 cells permanently transfected with GHS1A-receptor, read-out: pEC50 (converted)
[4] = lowest active dose, subcutaneous, 30 min before phenol red test meal, active when >60% of animals had phenol red front beyond 85% of small intestinal length, read-out: LAD (mg/kg) Small intestinal propulsion
[5] = lowest active dose, subcutaneous, 30 min before phenol red test meal, stomach content 15 min after meal, active when >60% of animals below 0.9 extinction units, read-out: LAD (mg/kg) Gastric emptying

| Molecule | EC50 [1, 3] | other results |
| --- | --- | --- |
| CN(C)CCC[C@@]1(O)c2ccccc2CCC[C@@H]1c1ccc(Cl)cc1 (racemic) [Compound 1] | 39.8 nM | minimal effective dose [2, 4]: 2.5 mg/kg; minimal effective dose [2, 5]: 2.5 mg/kg |
| Oc1ccc([C@H]2CCCc3ccccc3[C@]2(O)CCCN2CCOCC2)cc1 (racemic) [Compound 7] | > 10000 nM |  |
| Cc1ccc([C@H]2CCOc3ccccc3[C@]2(O)CCCN(C)C)cn1 (racemic) [Compound 9] | 794 nM |  |
| Cc1ccc([C@H]2CCOc3ccccc3[C@]2(O)CCCN(C)Cc2ccccc2)cc1 (racemic) [Compound 10] | 251 nM |  |
| COc1cccc([C@H]2CCCc3ccccc3[C@]2(O)CCCN(C)C)c1 (racemic) [Compound 14, (±)cis-5-(3-Dimethylamino-propyl)-6-(3-methoxy-phenyl)-6,7,8,9-tetrahydro-5H-benzocyclohepten-5-ol oxalate] |  | EC50 ([1]; pEC50, HEK293 cells permanently transfected with GHS1A-receptor): 12.6 nM; minimal effective dose ([2]; read-out: LAD (mg/kg) Gastric emptying): 10 mg/kg; minimal effective dose ([2]; read-out: LAD (mg/kg) Small intestinal propulsion): > 10 mg/kg |
| CO[C@]1(CCCN(C)C)c2ccccc2CCC[C@@H]1c1ccc(Cl)cc1 (racemic) [Compound 15] | 1580 nM |  |
| Cc1ccc([C@H]2CCCc3ccccc3[C@]2(O)CCCN(C)C)cn1 (racemic) [Compound 16, (±)cis-5-(3-Dimethylamino-propyl)-6-(6-methyl-pyridin-3-yl)-6,7,8,9-tetrahydro-5H-benzocyclohepten-5-ol hydrochloride] | 251 nM | minimal effective dose [2, 4]: > 10 mg/kg; minimal effective dose [2, 5]: 10 mg/kg |
| CNCCCC1(O)c2ccccc2CCCC1c1ccccc1 (racemic) [Compound 19] | 200 nM | minimal effective dose [2, 4]: > 10 mg/kg; minimal effective dose [2, 5]: > 10 mg/kg |
| OC1(CCCN2CCCC2)c2ccccc2CCCC1c1ccccc1 (racemic) [Compound 21] | 79.4 nM | minimal effective dose [2, 4]: > 10 mg/kg; minimal effective dose [2, 5]: > 10 mg/kg |
| CNCCCC1(O)c2ccccc2CCCC1c1cccc(C)c1 (racemic) [Compound 22] | 39.8 nM | minimal effective dose [2, 4]: > 10 mg/kg; minimal effective dose [2, 5]: > 10 mg/kg |
| COCCN(C)CCCC1(O)c2ccccc2CCCC1c1cccc(C)c1 (racemic) [Compound 23] | 31.6 nM |  |
| Cc1cccc(C2CCCc3ccccc3C2(O)CCCN(C)Cc2ccccc2)c1 (racemic) [Compound 24] | 3980 nM |  |
| Cc1cccc(C2CCCc3ccccc3C2(O)CCCN2CCOCC2)c1 (racemic) [Compound 25] | 1580 nM |  |
| CC(=O)N1CCN(CCCC2(O)c3ccccc3CCCC2c2cccc(C)c2)CC1 (racemic) [Compound 26] | 3160 nM |  |
| CNCCCC1(O)c2ccccc2CCCC1c1ccc(C)cc1 (racemic) [Compound 27] | 79.4 nM | minimal effective dose [2, 4]: > 10 mg/kg; minimal effective dose [2, 5]: > 10 mg/kg |
| Cc1ccc(C2CCCc3ccccc3C2(O)CCCN(C)C)cc1 (racemic) [Compound 29] | 15.8 nM | minimal effective dose [2, 4]: 10 mg/kg; minimal effective dose [2, 5]: 10 mg/kg |
| COCCN(C)CCCC1(O)c2ccccc2CCCC1c1ccc(C)cc1 (racemic) [Compound 30] | 79.4 nM | minimal effective dose [2, 4]: > 10 mg/kg; minimal effective dose [2, 5]: 10 mg/kg |
| CCN(CC)CCCC1(O)c2ccccc2CCCC1c1ccc(C)cc1 (racemic) [Compound 31] | 25.1 nM |  |
| Cc1ccc(C2CCCc3ccccc3C2(O)CCCN2CCCCC2)cc1 (racemic) [Compound 32] | 1000 nM |  |

| Molecule | EC50 [1, 3] | other results |
| --- | --- | --- |
| Cc1ccc(C2CCCc3ccccc3C2(O)CCCN2CCN(C)CC2)cc1 (racemic) [Compound 33] | 3160 nM |  |
| CN(C)CCCC1(O)c2ccccc2CCCC1c1ccc(O)cc1 (racemic) [Compound 35] | 2000 nM | minimal effective dose [2, 4]: > 10 mg/kg; minimal effective dose [2, 5]: > 10 mg/kg |
| COCCN(C)CCCC1(O)c2ccccc2CCCC1c1ccc(O)cc1 (racemic) [Compound 37] | 2000 nM |  |
| CN(C)CCCC1(O)c2ccccc2CCCC1c1ccc(Br)cc1 (racemic) [Compound 38] | 25.1 nM | minimal effective dose [2, 4]: > 10 mg/kg; minimal effective dose [2, 5]: > 10 mg/kg |
| CNCCCC1(O)c2ccccc2CCCC1c1cccc(Cl)c1 (racemic) [Compound 39] | 50.1 nM | minimal effective dose [2, 4]: > 10 mg/kg; minimal effective dose [2, 5]: > 10 mg/kg |
| CCN(CC)CCCC1(O)c2ccccc2CCCC1c1cccc(Cl)c1 (racemic) [Compound 41] | 7.94 nM | minimal effective dose [2, 4]: > 10 mg/kg; minimal effective dose [2, 5]: > 10 mg/kg |
| COCCN(C)CCCC1(O)c2ccccc2CCCC1c1cccc(Cl)c1 (racemic) [Compound 42] | 50.1 nM | minimal effective dose [2, 4]: > 10 mg/kg; minimal effective dose [2, 5]: > 10 mg/kg |
| CCNCCCC1(O)c2ccccc2CCCC1c1ccc(Cl)cc1 (racemic) [Compound 44] | 501 nM |  |
| CC(C)NCCCC1(O)c2ccccc2CCCC1c1ccc(Cl)cc1 (racemic) [Compound 45] | 794 nM |  |
| CN(CCCC1(O)c2ccccc2CCCC1c1ccc(Cl)cc1)Cc1ccccc1 (racemic) [Compound 47] | 5010 nM |  |
| OC1CCN(CCCC2(O)c3ccccc3CCCC2c2ccc(Cl)cc2)C1 (racemic) [Compound 49] | 79.4 nM |  |
| OC1(CCCN2CCCCC2)c2ccccc2CCCC1c1ccc(Cl)cc1 (racemic) [Compound 50] | 794 nM |  |
| OC1(CCCN2CCNCC2)c2ccccc2CCCC1c1ccc(Cl)cc1 (racemic) [Compound 51] | 1580 nM |  |
| CN1CCN(CCCC2(O)c3ccccc3CCCC2c2ccc(F)cc2)CC1 (racemic) [Compound 55] | 1580 nM |  |
| OC1(CCCN2CCCCC2)c2ccccc2CCCC1c1ccc(F)cc1F (racemic) [Compound 59] | > 10000 nM |  |
| CCN(CC)CCCC1(O)c2ccccc2CCCC1c1cccc(OC)c1 (racemic) [Compound 61] | 25.1 nM |  |
| COc1cccc(C2CCCc3ccccc3C2(O)CCCN(C)Cc2ccccc2)c1 (racemic) [Compound 62] | 2510 nM |  |
| COc1ccc(C2CCCc3ccccc3C2(O)CCCN)cc1 (racemic) [Compound 64] | 25100 nM |  |
| CNCCCC1(O)c2ccccc2CCCC1c1ccc(OC)cc1 (racemic) [Compound 65] | 794 nM |  |

| Molecule | EC50 [1, 3] | other results |
| --- | --- | --- |
| COc1ccc(C2CCCc3ccccc3C2(O)CCCNCc2ccccc2)cc1 (racemic) [Compound 68] | > 31600 nM |  |
| COc1ccc(C2CCCc3ccccc3C2(O)CCCN(C)Cc2ccccc2)cc1 (racemic) [Compound 69] | > 10000 nM |  |
| COCCN(C)CCCC1(O)c2ccccc2CCCC1c1ccc(OC)cc1 (racemic) [Compound 70] | 1260 nM |  |
| COCCN(C)CCCC1(O)c2ccccc2CCCC1c1ccc(Cl)c(OC)c1 (racemic) [Compound 75] | 15.8 nM |  |
| CNCCCC1(O)c2ccccc2CCCC1c1ccc(OC)c(OC)c1 (racemic) [Compound 76] | 1580 nM |  |
| COc1ccc(C2CCCc3ccccc3C2(O)CCCN(C)C)cc1OC (racemic) [Compound 77] | 794 nM |  |
| COCCN(C)CCCC1(O)c2ccccc2CCCC1c1ccc(OC)c(OC)c1 (racemic) [Compound 79] | 2000 nM |  |
| CN(CCCC1(O)c2ccccc2CCCC1c1cnc2ccccc2c1)Cc1ccccc1 (racemic) [Compound 87] | 1580 nM |  |
| COCCN(C)CCCC1(O)c2ccccc2CCCC1c1ccc2c(c1)OCO2 (racemic) [Compound 90] | 158 nM |  |
| OC1CCN(CCCC2(O)c3ccccc3CCCC2c2ccc3c(c2)OCO3)C1 (racemic) [Compound 91] | 1000 nM |  |
| COc1cncc(C2CCOc3ccccc3C2(O)CCCN(C)C)c1 (racemic) [Compound 100] | 3980 nM |  |
| CCN(CC)CCCC1(O)c2ccccc2OCCC1c1cncc(OC)c1 (racemic) [Compound 101] | 2000 nM |  |
| CCN(CC)CCCC1(O)c2ccccc2OCCC1c1ccc(OC)nc1 (racemic) [Compound 103] | 6310 nM |  |
| CN(C)CCC[C@@]1(O)c2ccccc2OCC[C@@H]1c1ccccc1 (relative stereo) [Compound 8] | 316 nM |  |
| CN(C)CCCC1(O)c2ccccc2CCCC1c1ccc(Cl)cc1 (single isomer, unassigned) [Compound 5] | 1000 nM |  |
| CN(C)CCCC1(O)c2ccccc2CCCC1c1ccc(Cl)cc1 (single isomer, unassigned) [Compound 6] | 10 nM |  |
| CN(C)CCCC1(O)c2ccccc2CCCC1c1ccccc1 (single isomer, unassigned) [Compound 104] | 2000 nM |  |
| GHRP-6 [reference compound] |  | LAD (mg/kg) Small intestinal propulsion ([2]; lowest active dose, subcutaneous, 30 min before phenol red test meal, active when >60% of animals had phenol red front beyond 85% of small intestinal length): 2.5 mg/kg; LAD (mg/kg) Gastric emptying ([2]; lowest active dose, subcutaneous, 30 min before phenol red test meal, stomach content 15 min after meal, active when >60% of animals below 0.9 extinction units): 0.63 mg/kg |
